Experiments:
[1] = test system: endotoxin induced uveitis; assay: rat model of endotoxin induced uveitis, ocular exam scores; assay type: in vivo, female Lewis rats; conditions: for retina-choroid scores, within-subject statistical analysis (treatment and time): IVT treatment, compared to vehicle control
Experimental: (§1) An in vivo study was conducted to assess the efficacy of intravitreal administration of Compound I-5 and I-22 in a rat model of endotoxin induced uveitis, one of the most appropriate models for the study of non-infectious uveitis (NIU) (Smith et al., 1998, Immunol Cell Biol. 76(6):497-512) (Toxikon Study 16-04078-N1). Ocular inflammation was induced in female Lewis rats (n=10/group) by a single, foot pad injection of lipopolysaccharide (LPS) (100 μL) (Herbort et al., 1988, Graefes Arch Clin Exp Ophthalmol. 226(6):553-8). Compound I-5 or I-22 (50 μg) was topically administered (TO) to the eye at hours 1, 3, 7, 10, and 17, after LPS induction, or by a single intravitreal (IVT) injection (25 μg) 1 hour after LPS induction (n=10 per group). Ocular exams were performed six and 24 hours after LPS injection. Anterior segments were scored using a combined Draize and McDonald-Shattuck scoring system, and posterior segments were scored using 0 to 1 (vitreous, optic disc, retinal vasculature) and 0 to 4 (retinal and choroidal hemorrhage, exudation, and detachment) scales. Statistical significance from vehicle control was determined by ANOVA, followed by Tukey's post hoc test. The test compound, e.g., Compound I-22 (5 mg/mL), was administered intravitreally into each eye (25 μg/eye) within one hour of LPS administration. Balanced salt solution (BSS) served as a vehicle control. Retinal exams were performed prior to study start and six and 24 hours following LPS administration and scored using a Combined Draize and McDonald Shadduck scoring system, based on assessments of: (a) Retinal vasculopathy; (2) Retinal hemorrhage, exudate or detachment; and (3) Retinal hemorrhage, exudate or detachment.

[2] = test system: MDA adducts; assay: MDA adducts in the LPS-induced uveitis model; assay type: in vivo, female Lewis rats; conditions: after TO and IVT administration; data not shown
Experimental: as §1, with “Compound I-5 or I-22 (50 μg) was topically administered (TO) to the eye at hours 1, 3, 7, 10, and 17, after LPS induction, or by a single intravitreal (IVT) injection (25 μg) 1 hour after LPS induction (n=10 per group). Ocular exams were performed six and 24 hours after LPS injection.” left out, “The test compound, e.g., Compound I-22 (5 mg/mL), was administered intravitreally into each eye (25 μg/eye) within one hour of LPS administration. Balanced salt solution (BSS) served as a vehicle control.” left out

[3] = test system: A2E; assay: A2E formation in retinas of abcr-/- mouse knockout model of macular degeneration; assay type: in vivo, mice; conditions: 10 mg/kg intraperitoneally daily for 56 days, HPLC, compared with vehicle controls
Experimental: (§2) A mouse knockout model (abcr−/−) of macular degeneration (MD) was used to test the activities of Compound I-5 and Compound I-22. The retinal transport protein, ABCA4, is not expressed in these mice, allowing retinaldehdye to escape the light cycle and form a toxic metabolite with phosphatidylethanolamine, N-retinylidene-phosphatidylethanolamine (A2E). Mice were treated intraperitoneally (IP) for 56 days with 10 mg/kg Compound I-5 (n=24), Compound I-22 (n=24), or vehicle (n=22), starting at week 10 to 12 of life. An untreated control group (n=12) was sacrificed on the first day of dosing. After treatment, A2E concentrations in retinas were measured by HPLC. Statistical significance from vehicle control was determined by t-test.

[4] = dark adaptation, separate study; assay type: in vivo; conditions: systemic (IP) doses 5-fold greater than the effective dose in the A2E study, 56 days; data not shown
[5] = body weight and adverse effects during 56 days daily treatment in the abcr-/- mouse study; assay type: in vivo, mice; conditions: daily treatment for 56 days
Experimental: as §2

[6] = test system: diabetic macular edema; assay: rat model of diabetic macular edema (STZ-induced diabetes), retinal histology scores; assay type: in vivo
Experimental: To assess the effect of Compound I-22 in a rat model of diabetic macular edema (DME), Type 1 diabetes was induced in male brown Norway rats by intraperitoneal administration of streptozotocin (STZ; 55 mg/kg). Forty days after STZ administration, animals were tested for diabetes by testing blood glucose levels.
Animals with diabetes were assigned to groups of ten, to receive either vehicle (HPβCD) or Compound I-22. […] On Day 41 (about Week 6) after STZ induction, animals received a single intravitreal injection of Compound I-22 (3.5 μL; 17.5 μg) or vehicle per eye. On Day 57 (about Week 8) after STZ induction, animals received a second intravitreal injection of Compound I-22 or vehicle.
On Day 70 (about Week 10) after STZ induction, animals were euthanized and retinas were processed for histological examination. Sections (3 to 5 μm) were stained with hematoxylin and eosin and evaluated by light microscopy. Changes in retinal thickness were scored on a 0 to 4 scale, with 0 meaning no changes, 1 meaning minimal changes, 2 meaning mild changes, 3 meaning moderate changes, and 4 meaning severe changes, relative to non-diabetic controls. Six microscopic sections were examined for each eye, and retinas were also assessed and scored by a pathologist for changes in vascularity and neutrophil infiltration.

[7] = single intravitreal (IVT) injection 25 μg 1 hour after LPS, vs. vehicle
[8] = topical (TO) 50 μg at hours 1, 3, 7, 10, 17 after LPS, at 6 hours and 24 hours, compared to vehicle

Row | SMILES | retina-choroid scores, within-subject statistical analysis (treatment and time) [1] | ocular exam scores (total ocular, anterior chamber and retina-choroid inflammation) [1, 7] | ocular exam scores (total ocular, anterior chamber and retina-choroid inflammation) [1, 8] | MDA adducts [2] | decrease in formation of A2E [3] [%] | effect on dark adaptation [4] | drug-related adverse effects [5] | effect on body weight [5] | reduction in retinal vascularity compared to vehicle, statistical significance ([6]; intravitreal 17.5 μg per eye on Day 41 and Day 57 after STZ, FIG. 10) | neutrophil infiltration (score 0 to 4) ([6]; intravitreal 17.5 μg per eye on Day 41 and Day 57 after STZ, compared to vehicle, p<0.01) | decrease in retinal vascularity score ([6]; intravitreal 17.5 μg per eye on Day 41 and Day 57 after STZ, compared to vehicle, p<0.05) [%] | retinal thickness (score 0 to 4) ([6]; intravitreal 17.5 μg per eye on Day 41 and Day 57 after STZ, histology Day 70, p<0.01) | tolerability in the retina ([6]; intravitreal injection, rat DME model) | retinal inflammation ([6]; measured by retinal thickness, neutrophil infiltration and retinal vascular changes)
1 | CC(C)(O)c1nc2ccc(Cl)cc2cc1N [Compound I-5] | significantly improved | significantly improved | significantly improved | Small, although not significant, reductions | 71 | no effect | nor were any drug-related adverse effects observed | no effect | – | – | – | – | – | –
2 | CC(C)(O)c1cc2oc(-c3ccccc3)nc2cc1N [Compound I-22] | significantly improved | significantly improved | significantly improved | Small, although not significant, reductions | 69 | – | nor were any drug-related adverse effects observed | no effect | not statistically significant | significant reduction | 36 | significant reduction | well tolerated | decreased

— patent publication US20220133697A1, “INJECTABLE FORMULATIONS” (Aldeyra Therapeutics, Inc., priority 2018, published 2022)
